From ChEMBL document CHEMBL3259619, “Antibacterial activity of a series of N2,N4-disubstituted quinazoline-2,4-diamines” (J Med Chem, 2014)
Converted amounts (≈) assume the structure as drawn. The source made the active and inactive calls.

Tests used:
Staphylococcus aureus [1] = test: Antimicrobial activity against methicillin-resistant Staphylococcus aureus CBD-635 assessed as zone of inhibition at 5 mg/ml after 24 hrs by disk diffusion assay; assay type: functional; conditions: for zone of inhibition at 5000 µg/mL: CBD-635, 24 h, read-out: IZ
Staphylococcus aureus [2] = test: Antimicrobial activity against methicillin-resistant Staphylococcus aureus CBD-635 assessed as complete inhibition of bacterial growth after overnight incubation; assay type: functional
Staphylococcus aureus [3] = test: Antimicrobial activity against methicillin-resistant Staphylococcus aureus CBD-635 assessed as complete inhibition of bacterial growth at 5 times MIC after overnight incubation in presence of tetrahydrofolic acid; assay type: functional, organism-based
Staphylococcus aureus [4] = test: Antimicrobial activity against N2,N4-dibenzylquinazoline-2,4-diamine-induced methicillin-resistant Staphylococcus aureus CBD-635 mutant M1 assessed as complete inhibition of bacterial growth after overnight incubation; assay type: functional
Staphylococcus aureus [5] = test: Antimicrobial activity against N2,N4-dibenzylquinazoline-2,4-diamine-induced methicillin-resistant Staphylococcus aureus CBD-635 mutant M2 assessed as complete inhibition of bacterial growth after overnight incubation; assay type: functional
Staphylococcus aureus [6] = test: Antimicrobial activity against N2,N4-dibenzylquinazoline-2,4-diamine-induced methicillin-resistant Staphylococcus aureus CBD-635 mutant M3 assessed as complete inhibition of bacterial growth after overnight incubation; assay type: functional
Staphylococcus aureus [7] = test: Antimicrobial activity against N2,N4-dibenzylquinazoline-2,4-diamine-induced methicillin-resistant Staphylococcus aureus CBD-635 mutant M4 assessed as complete inhibition of bacterial growth after overnight incubation; assay type: functional
Staphylococcus aureus [8] = test: Antimicrobial activity against N2,N4-dibenzylquinazoline-2,4-diamine-induced methicillin-resistant Staphylococcus aureus CBD-635 mutant M5 assessed as complete inhibition of bacterial growth after overnight incubation; assay type: functional
Staphylococcus aureus [9] = test: Antimicrobial activity against N2,N4-dibenzylquinazoline-2,4-diamine-induced methicillin-resistant Staphylococcus aureus CBD-635 mutant M6 assessed as complete inhibition of bacterial growth after overnight incubation; assay type: functional
Staphylococcus aureus [10] = test: Antimicrobial activity against N2,N4-dibenzylquinazoline-2,4-diamine-induced methicillin-resistant Staphylococcus aureus CBD-635 mutant M7 assessed as complete inhibition of bacterial growth after overnight incubation; assay type: functional

Structure (SMILES) | zone of inhibition at 5000 µg/mL (Staphylococcus aureus [1]) [mm] | MIC (Staphylococcus aureus [2]) [µM] | inhibition (Staphylococcus aureus [3]) | inhibition zone (IZ) (Staphylococcus aureus [1]) | further results
c1ccc(Nc2nc(Nc3ccccc3)c3ccccc3n2)cc1 | 10 | 32 (≈ 10 µg/mL) | inactive |  | 
CC(C)(C)Nc1nc(NCc2ccco2)c2ccccc2n1 | 9 | 340 (≈ 101 µg/mL) | inactive |  | 
Clc1ccc(Nc2nc(NCc3ccco3)c3ccccc3n2)cc1 | 10 | 29 (≈ 10.2 µg/mL) | inactive |  | 
COc1ccc(CNc2nc(NCc3ccc(Cl)cc3)c3ccc(Cl)cc3n2)cc1 |  | 51 (≈ 22.4 µg/mL) | inactive |  | 
CCOC(=O)CNc1nc(NC(C)C)nc2ccccc12 |  |  | inactive | inactive | 
CNc1nc(NC(C)C)c2ccccc2n1 |  |  | inactive | inactive | 
CC(C)Nc1nc(NCc2ccccc2)c2ccccc2n1 | 13 | 34 (≈ 9.94 µg/mL) | inactive |  | 
Clc1ccc(CNc2nc(NCc3ccc(Cl)cc3)c3ccc(Cl)cc3n2)cc1 |  | 68 (≈ 30.2 µg/mL) | inactive |  | 
COc1cccc2nc(NC(C)C)nc(NCc3ccco3)c12 | 9 | > 80 | inactive |  | 
Clc1ccc(Nc2nc(NCc3ccco3)nc3ccccc23)cc1 | 10 | 29 (≈ 10.2 µg/mL) | inactive |  | 
CNc1nc(NC2CC2)nc2ccccc12 |  |  | inactive | inactive | 
CC(C)Nc1nc(Nc2ccccc2)c2ccccc2n1 | 10 | 36 (≈ 10 µg/mL) | inactive |  | 
CC(C)Nc1nc(NCc2ccco2)c2cc(Cl)ccc2n1 | 11 | 32 (≈ 10.1 µg/mL) | inactive |  | 
CC(C)Nc1nc(NC(C)(C)C)c2ccccc2n1 |  |  | inactive | inactive | 
CC(C)Nc1nc(NCc2ccccc2)nc2ccccc12 | 13 | 34 (≈ 9.94 µg/mL) | inactive |  | 
COc1ccc(CNc2nc(NCc3ccccc3)nc3ccccc23)cc1 |  | 68 (≈ 25.2 µg/mL) | inactive |  | MIC (Staphylococcus aureus [4]): 27 µM (≈ 10 µg/mL); MIC (Staphylococcus aureus [5]): 27 µM (≈ 10 µg/mL); MIC (Staphylococcus aureus [6]): 27 µM (≈ 10 µg/mL); MIC (Staphylococcus aureus [7]): 2.7 µM (≈ 1 µg/mL); MIC (Staphylococcus aureus [8]): 27 µM (≈ 10 µg/mL); MIC (Staphylococcus aureus [9]): 2.7 µM (≈ 1 µg/mL); MIC (Staphylococcus aureus [10]): 27 µM (≈ 10 µg/mL)
COc1ccc2c(NCc3ccco3)nc(NC(C)C)nc2c1 |  |  | inactive | inactive | 
c1coc(CNc2nc(NC3CCC3)nc3ccccc23)c1 |  |  | inactive | inactive | 
c1coc(CNc2nc(NC3CC3)nc3ccccc23)c1 |  |  | inactive | inactive | 
CNc1nc(NC)c2ccccc2n1 |  |  | inactive | inactive | 
c1coc(CNc2nc(NC3CCCCC3)nc3ccccc23)c1 | 10 | 78 (≈ 25.1 µg/mL) | inactive |  | 
CNc1nc(NC(C)C)nc2ccccc12 |  |  | inactive | inactive | 

Structure (SMILES) | zone of inhibition at 5000 µg/mL (Staphylococcus aureus [1]) [mm] | MIC (Staphylococcus aureus [2]) [µM] | inhibition (Staphylococcus aureus [3]) | inhibition zone (IZ) (Staphylococcus aureus [1]) | further results
CC(C)Nc1nc(NCc2ccco2)c2cccc(Cl)c2n1 | 10 | 32 (≈ 10.1 µg/mL) | inactive |  | 
COc1ccc(CNc2nc(NCc3ccccc3)c3ccc(Cl)cc3n2)cc1 |  | 22 (≈ 8.91 µg/mL) | inactive |  | 
Clc1ccc(CNc2nc(NCc3ccccc3)c3ccccc3n2)cc1 |  | 27 (≈ 10.1 µg/mL) | inactive |  | MIC (Staphylococcus aureus [4]): 27 µM (≈ 10.1 µg/mL); MIC (Staphylococcus aureus [5]): 2.7 µM (≈ 1.01 µg/mL); MIC (Staphylococcus aureus [6]): 2.7 µM (≈ 1.01 µg/mL); MIC (Staphylococcus aureus [7]): 2.7 µM (≈ 1.01 µg/mL); MIC (Staphylococcus aureus [8]): 2.7 µM (≈ 1.01 µg/mL); MIC (Staphylococcus aureus [9]): 2.7 µM (≈ 1.01 µg/mL); MIC (Staphylococcus aureus [10]): 2.7 µM (≈ 1.01 µg/mL)
CNc1nc(NCc2ccco2)nc2ccccc12 | 10 | 390 (≈ 99.2 µg/mL) | inactive |  | 
COc1cccc2c(NCc3ccco3)nc(NC(C)C)nc12 |  |  | inactive | inactive | 
Cc1ccc(CNc2nc(NCc3ccccc3)c3ccccc3n2)cc1 |  | 28 (≈ 9.92 µg/mL) | inactive |  | MIC (Staphylococcus aureus [4]): 28 µM (≈ 9.92 µg/mL); MIC (Staphylococcus aureus [5]): 2.8 µM (≈ 0.992 µg/mL); MIC (Staphylococcus aureus [6]): 2.8 µM (≈ 0.992 µg/mL); MIC (Staphylococcus aureus [7]): 2.8 µM (≈ 0.992 µg/mL); MIC (Staphylococcus aureus [8]): 2.8 µM (≈ 0.992 µg/mL); MIC (Staphylococcus aureus [9]): 2.8 µM (≈ 0.992 µg/mL); MIC (Staphylococcus aureus [10]): 2.8 µM (≈ 0.992 µg/mL)
Cc1cccc2nc(NC(C)C)nc(NCc3ccco3)c12 |  |  | inactive | inactive | 
COc1ccc2nc(NC(C)C)nc(NCc3ccco3)c2c1 | 10 | 80 (≈ 25 µg/mL) | inactive |  | 
CCCCNc1nc(Nc2ccccc2)nc2ccccc12 | 12 | 34 (≈ 9.94 µg/mL) | inactive |  | 
CC(C)Nc1nc(N(C)C)c2ccccc2n1 |  |  | inactive | inactive | 
Cc1cccc2c(NCc3ccco3)nc(NC(C)C)nc12 | 10 | 340 (≈ 101 µg/mL) | inactive |  | 
CC(C)Nc1nc(NCc2ccco2)c2c(Cl)cccc2n1 | 9 | > 78 | inactive |  | 
CNc1nc(NCc2ccco2)c2ccccc2n1 |  |  | inactive | inactive | 
CCNc1nc(NCc2ccco2)c2ccccc2n1 |  |  | inactive | inactive | 
FC(F)(F)CNc1nc(NCc2ccco2)c2ccccc2n1 |  |  | inactive | inactive | 
CC(C)Nc1nc(NCC(F)(F)F)c2ccccc2n1 |  |  | inactive | inactive | 
CC(C)Nc1nc(NC2CC2)c2ccccc2n1 |  |  | inactive | inactive | 
Cc1ccc(CNc2nc(NCc3ccccc3)nc3ccccc23)cc1 |  | 71 (≈ 25.2 µg/mL) | inactive |  | MIC (Staphylococcus aureus [4]): 2.8 µM (≈ 0.992 µg/mL); MIC (Staphylococcus aureus [5]): 2.8 µM (≈ 0.992 µg/mL); MIC (Staphylococcus aureus [6]): 28 µM (≈ 9.92 µg/mL); MIC (Staphylococcus aureus [7]): 28 µM (≈ 9.92 µg/mL); MIC (Staphylococcus aureus [8]): 28 µM (≈ 9.92 µg/mL); MIC (Staphylococcus aureus [9]): 28 µM (≈ 9.92 µg/mL); MIC (Staphylococcus aureus [10]): 28 µM (≈ 9.92 µg/mL)
CC(C)Nc1nc(NC2CCCC2)nc2ccccc12 | 8 | 190 (≈ 51.4 µg/mL) | inactive |  | 
CC(C)Nc1nc(NC2CC2)nc2ccccc12 |  |  | inactive | inactive | 
CCNc1nc(NC(C)C)c2ccccc2n1 |  |  | inactive | inactive | 
CC(C)Nc1nc(NCC2CCCO2)c2ccccc2n1 (configuration not stated) |  |  | inactive | inactive | 

Structure (SMILES) | zone of inhibition at 5000 µg/mL (Staphylococcus aureus [1]) [mm] | MIC (Staphylococcus aureus [2]) [µM] | inhibition (Staphylococcus aureus [3]) | inhibition zone (IZ) (Staphylococcus aureus [1]) | further results
CCCCNc1nc(NCc2ccccc2)c2ccc(Cl)cc2n1 |  | 0.73 (≈ 0.249 µg/mL) | inactive |  | MIC (Staphylococcus aureus [4]): 0.73 µM (≈ 0.249 µg/mL); MIC (Staphylococcus aureus [5]): 0.73 µM (≈ 0.249 µg/mL); MIC (Staphylococcus aureus [6]): 0.73 µM (≈ 0.249 µg/mL); MIC (Staphylococcus aureus [7]): 0.73 µM (≈ 0.249 µg/mL); MIC (Staphylococcus aureus [8]): 0.73 µM (≈ 0.249 µg/mL); MIC (Staphylococcus aureus [9]): 0.73 µM (≈ 0.249 µg/mL); MIC (Staphylococcus aureus [10]): 0.73 µM (≈ 0.249 µg/mL)
CC(C)Nc1nc(NCc2ccco2)nc2ccccc12 | 12 | 35 (≈ 9.88 µg/mL) | inactive |  | 
CC(C)Nc1nc(NCc2ccco2)c2ccccc2n1 | 10 | 180 (≈ 50.8 µg/mL) | inactive |  | 
c1ccc(CNc2nc(Nc3ccccc3)c3ccccc3n2)cc1 | 10 | 31 (≈ 10.1 µg/mL) | inactive |  | 
CNc1nc(NCCO)nc2ccccc12 |  |  | inactive | inactive | 
OCCNc1nc(NCc2ccco2)c2ccccc2n1 |  |  | inactive | inactive | 
Clc1ccc(CNc2nc(NCc3ccccc3)nc3ccccc23)cc1 |  | 67 (≈ 25.1 µg/mL) | inactive |  | MIC (Staphylococcus aureus [4]): 2.7 µM (≈ 1.01 µg/mL); MIC (Staphylococcus aureus [5]): 2.7 µM (≈ 1.01 µg/mL); MIC (Staphylococcus aureus [6]): 2.7 µM (≈ 1.01 µg/mL); MIC (Staphylococcus aureus [7]): 2.7 µM (≈ 1.01 µg/mL); MIC (Staphylococcus aureus [8]): 2.7 µM (≈ 1.01 µg/mL); MIC (Staphylococcus aureus [9]): 2.7 µM (≈ 1.01 µg/mL); MIC (Staphylococcus aureus [10]): 2.7 µM (≈ 1.01 µg/mL)
CCCCNc1nc(Nc2ccccc2)c2ccccc2n1 | 14 | 34 (≈ 9.94 µg/mL) | inactive |  | 
CC(C)Nc1nc(NC(C)C)c2ccccc2n1 |  |  | inactive | inactive | 
CC(C)Nc1nc(NCc2ccco2)c2ccc(Cl)cc2n1 | 12 | 32 (≈ 10.1 µg/mL) | inactive |  | 
CC(C)Nc1nc(NCCO)nc2ccccc12 |  |  | inactive | inactive | 
Cc1ccc2c(NCc3ccco3)nc(NC(C)C)nc2c1 |  |  | inactive | inactive | 
Cc1ccc2nc(NC(C)C)nc(NCc3ccco3)c2c1 |  |  | inactive | inactive | 
Cc1ccc(Nc2nc(NCc3ccco3)c3ccccc3n2)cc1 | 9 | 30 (≈ 9.91 µg/mL) | inactive |  | 
CCNc1nc(NC(C)C)nc2ccccc12 |  |  | inactive | inactive | 
c1coc(CNc2nc(NC3CCCC3)nc3ccccc23)c1 | 12 | 160 (≈ 49.3 µg/mL) | inactive |  | 
CC(C)Nc1nc(NC2CCCC2)c2ccccc2n1 | 10 | 37 (≈ 10 µg/mL) | inactive |  | 
CSCCNc1nc(NC(C)C)nc2ccccc12 | 9 | > 360 | inactive |  | 
CNc1nc(NC2CCCC2)nc2ccccc12 |  |  | inactive | inactive | 
c1ccc(CNc2nc(NCc3ccco3)c3ccccc3n2)cc1 | 11 | 30 (≈ 9.91 µg/mL) | inactive |  | 
